Results on two compounds are retold here after patent US20220267271A1, “WNT ACTIVATORS AND METHODS OF USE” (MAYO FOUNDATION FOR MEDICAL EDUCATION AND RESEARCH, priority 2019, published 2022).

The test system of one assay is LRP6. The experiment in a line: HA-LRP6 expression in HT1080 cells stably transduced with HA-LRP6, Western blot. The assay is classed as cell-based, human. The settings on record: HT1080 cells stably transduced with HA-LRP6, 24 h. The protocol: (A) structures of niciosamide and CI-994; (B) HEK293 cells were transfected with Super8XTOPFlash and β galactosidase vectors along with Wnt3A or control vector. After 24 hours incubation, cells were treated with CI-994 at the indicated concentration for 24 hr. The luciferase activity was then measured and normalized to the activity of the β-galactosidase. (C) HT1080 cells stably transduced LRP6 with HA tag were treated with niciosamide and CI-994 at the indicated concentrations for 24 h. The levels of HA-LRP6 were examined by Western blot with anti-HA antibody. (D) Western blots showing the depletion of LRP6 after 2 days of transiently transfection of 50 nM LRP6 siRNA in HEK293 cells. […] The luciferase activity was then measured and normalized to β-galactosidase activity. […]
(A) HT1080 cells stably transduced with human LRP6 with HA tag were treated with niciosamide (1 μM) and other compounds as noted (1 μM) for 24 hr. […] The luciferase activity was then measured and normalized to β-galactosidase activity. […]
Western blotting: Cells in 6-well plates were lysed in 0.5 ml of lysis buffer (phosphate-buffered saline containing 1% Triton X-100, 1× Proteinase inhibitor cocktail Complete, and 1 mM PMSF) at 4° C. for 15 min. Equal quantities of protein were subjected to SDS-PAGE under reducing conditions. […]
(In general: In western blotting, separated proteins are transferred to a membrane and probed.)

Another assay has as its system β-catenin. As to the kind of experiment: Cytosolic free β-catenin level in HEK293 cells. The class given is cell-based. An excerpt:
Niclosamide (5-chloro-N-[2-chloro-4-nitrophenyl]-2-hydroxy benzamide), an FDA approved antihelminthic drug, suppresses Wnt/β-catenin signaling by inducing Wnt co-receptor LRP6 degradation in cancer cells. […] CI-994 is an orally active class I histone deacetylase (HDAC) inhibitor [37]. CI-994 increased Wnt reporter activity (FIG. 2B) and cytosolic free β-catenin level in HEK293 cells.

The subject of another assay is tau. The experiment in a line: Tau phosphorylation in N2a cells by Western blotting. The assay is classed as cell-based. To be noted: 0.8 and 1.6 μM, 24 h. The protocol:
N2a cells were treated with 1011 at the indicated concentrations for 24 h. (A) the levels of β-catenin, tau and tau phosphorylation were examined by Western blotting. (B) the intensity of the tau phosphorylation bands were quantified and normalized to the corresponding signal for total tau. The results represented in the histograms are shown as the mean±SD and are the average of 3 independent experiments. *P<0.05, **P<0.01 versus corresponding control value.
(§1) Western blotting: Cells in 6-well plates were lysed in 0.5 ml of lysis buffer (phosphate-buffered saline containing 1% Triton X-100, 1× Proteinase inhibitor cocktail Complete, and 1 mM PMSF) at 4° C. for 15 min. Equal quantities of protein were subjected to SDS-PAGE under reducing conditions. Following transfer to immobilon-P transfer membrane, successive incubations with a primary antibody, and a horseradish peroxidase-conjugated secondary antibody or IRDye® 680RD goat anti-rabbit/mouse secondary antibodies were carried out for 60-120 min at room temperature. The immunoreactive proteins were then detected using the ECL system or the Odyssey infrared imaging system (LI-COR). Films showing immunoreactive bands were scanned by Hp Scanjet 5590.

The subject of the next assay is GSK3β. As to the kind of experiment: GSK3β phosphorylation (Ser9) in N2a cells by Western blotting. The assay is classed as cell-based. The settings on record: 0.8 μM and 1.6 μM, 24 h. The protocol: N2a cells were treated with 1011 at the indicated concentrations for 24 h. (A) the levels of β-catenin, GSK3β and GSK3β phosphorylation (Ser9) were examined by Western blotting. (B) the intensity of the GSK3β phosphorylation bands were quantified and normalized to the corresponding signal for total GSK3β. The results represented in the histograms are shown as the mean±SD and are the average of 3 independent experiments. *P<0.05, **P<0.01 versus corresponding control value.
as §1

The structures appear in SMILES notation.

For `CC(=O)Nc1ccc(C(=O)Nc2ccccc2N)cc1` [CI-994, 4-(acetylamino)-N-(2-aminophenyl)benzamide, reference compound], in the assay with LRP6, the HA-LRP6 expression entry is listed as “significantly enhanced”. For the same compound, the “cytosolic free β-catenin level” value in the assay on β-catenin is on record as “increased”.

On to `CC1CCCC(C)N1CCNC(=O)c1ccc(C(=O)Nc2ccccc2N)nc1` (stereo not shown) [Compound 1011], for which the tau phosphorylation result in the assay with tau is listed as “suppressed”. Also, the “GSK3β phosphorylation at Ser9” value in the assay on GSK3β was “significantly enhanced”.
